Where two headings read alike, the source gives them in different places.
Assays:
[1] = system: HeLa cervical cancer cells; experiment: Cancer cell proliferation, HeLa; format: cell-based, human; details: FIG. 79
Experimental: (§1) To determine the breadth of efficacy in cancers, we examined the efficacy of a range of TRPM7 inhibitors for their ability to inhibit cell proliferation in cancer cell lines. Representative figures are included as examples.
(§2) Cells (Table 1) were grown to 70% confluency, trypsinized, counted, and seeded in 96-well flat-bottom plates at a final concentration of 2.5×10^3-5.0×10^3 cells/well in growth media containing 5% FBS (Day 0). Other well sizes and cell densities were used successfully as well. Cells were allowed to incubate in growth media for 24 hours to allow for maximum adhesion. Treatment with the test agent began on Day 1 and continued for 72 hours either with or without retreatment. At the 72 hour time point, viable cell numbers are quantified by the CellTiter-Glo® cell viability assay as described above, or using standard MTT, SRB or BrDU assays. Experiments were repeated at least twice with the same concentrations to determine growth inhibitory activity.
(§3) Data Collection—For the cell proliferation studies, data from each experiment was collected and expressed as % Cell Growth using the following calculation: % Cell Growth=(ftest/fvehicle)×100 Where ftest is the luminescent signal of the tested sample, and fvehicle is the luminescence of the vehicle in which the drug is dissolved (or appropriate measure for the other viability/proliferation measures). […]

[2] = system: B16F10 melanoma; experiment: Murine tumor model of B16F10 melanoma; format: in vivo, mouse; details: intravenous 20 mg/kg once daily
Experimental: To evaluate the efficacy of TRPM7 inhibitors in vivo, M6 was selected to for a pilot evaluation of its ability to reduce tumor formation in a murine tumor model of B16F10 melanoma and a RXF-393 human renal cell carcinoma xenograft model of tumor proliferation. […] For each tumor model, an appropriate number of cells were injected into the right flank (˜3-5 million cells per animal in 0.1 ml 50% matrigel/50% media). When tumor sizes reached 100-150 mg, animals were randomized into control (vehicle only), positive control or M6. M6 was given by intravenous injection to 20 mg/kg once daily. Tumors were measured and the weights were calculated by standard means.

[3] = system: H292 non small cell lung cancer; experiment: Cancer cell proliferation, H292; format: cell-based; details: for IC50: Homo sapiens
Experimental: as §1, §2
as §3, with “measures). Dose response graphs and IC50 values were generated using standard software using the following variable slope equation:” for “measures).”

[4] = system: Y79 retinoblastoma cells; experiment: Cancer cell proliferation, Y79; format: cell-based
Experimental: as §1, §2
as §3, with “measures). Dose response graphs and IC50 values were generated using standard software using the following variable slope equation:” for “measures).”

[5] = system: NMDA receptor; experiment: NMDA receptor currents in cultured neurons; format: cell-based
Experimental: (§4) To examine selectivity of a subset of these TRPM7 inhibitors, experiments were performed to determine whether TRPM7 antagonists cross-react with other ionic channels and receptors. […] From a therapeutic perspective, knowledge of cross-reactivity of candidate drugs could shed light on other ischemic mechanisms and raise awareness of potential side effects. M21 has no effect on voltage-sensitive Na+, and Ca2+ currents in cultured cortical neurons […] TRPM7-expressing HEK293 cells, but inhibits K+ currents by about 20% at membrane potentials of −10 mV. M21 had no effect on agonist-induced Ca2+ changes in HEK293 cells transfected with constructs for TRPM2, TRPM4, TRPM6, TRPV1, TRPC2 and TRPA1. M21 also has no effect on NMDA and AMPA receptor currents in cultured neurons. […] Similar experiments were performed with other TRPM7 inhibitors including M5 and M11.

[6] = molecular target: T1, TRPA1 (Homo sapiens, UniProt O75762); experiment: Agonist-induced Ca2+ changes in HEK293 cells transfected with TRPA1; format: cell-based
T1 construct: expressed in transfected cells; host or cells: HEK293
Experimental: as §4

[7] = system: AMPA receptor; experiment: AMPA receptor currents in cultured neurons; format: cell-based
Experimental: as §4

[8] = system: raised intraocular pressure (IOP); experiment: Raised intraocular pressure model of acute glaucoma in rats; format: in vivo, rat; details: intraocular injection, 80 mm Hg 1 hour, 7-14 days
Experimental: We next tested whether direct intraocular injection of M21 could reduce retinal damage evoked by raising the intraocular pressure (IOP) in rats (80 mm Hg 1 hour; Morrison J C. Elevated intraocular pressure and optic nerve injury models in the rat. J Glaucoma. 2005; 14:315-317). M21 was microinjected into the vitreous humor directly, to control for any blood-brain-barrier penetration issues. […] The compounds of this invention can be used for the treatment of retinal disorders. Preferably these compounds are delivered orally, as an injection (intravenous, intraocular), or administered topically. This model of glaucoma can be used to assess the different routes of administration for these compounds

[9] = molecular target: T2, TRPM6 (Homo sapiens, UniProt Q9BX84); experiment: Agonist-induced Ca2+ changes in HEK293 cells transfected with TRPM6; format: cell-based
T2 construct: expressed in transfected cells; host or cells: HEK293
Experimental: as §4

T2 sequence (Q9BX84 whole entry, species assumed): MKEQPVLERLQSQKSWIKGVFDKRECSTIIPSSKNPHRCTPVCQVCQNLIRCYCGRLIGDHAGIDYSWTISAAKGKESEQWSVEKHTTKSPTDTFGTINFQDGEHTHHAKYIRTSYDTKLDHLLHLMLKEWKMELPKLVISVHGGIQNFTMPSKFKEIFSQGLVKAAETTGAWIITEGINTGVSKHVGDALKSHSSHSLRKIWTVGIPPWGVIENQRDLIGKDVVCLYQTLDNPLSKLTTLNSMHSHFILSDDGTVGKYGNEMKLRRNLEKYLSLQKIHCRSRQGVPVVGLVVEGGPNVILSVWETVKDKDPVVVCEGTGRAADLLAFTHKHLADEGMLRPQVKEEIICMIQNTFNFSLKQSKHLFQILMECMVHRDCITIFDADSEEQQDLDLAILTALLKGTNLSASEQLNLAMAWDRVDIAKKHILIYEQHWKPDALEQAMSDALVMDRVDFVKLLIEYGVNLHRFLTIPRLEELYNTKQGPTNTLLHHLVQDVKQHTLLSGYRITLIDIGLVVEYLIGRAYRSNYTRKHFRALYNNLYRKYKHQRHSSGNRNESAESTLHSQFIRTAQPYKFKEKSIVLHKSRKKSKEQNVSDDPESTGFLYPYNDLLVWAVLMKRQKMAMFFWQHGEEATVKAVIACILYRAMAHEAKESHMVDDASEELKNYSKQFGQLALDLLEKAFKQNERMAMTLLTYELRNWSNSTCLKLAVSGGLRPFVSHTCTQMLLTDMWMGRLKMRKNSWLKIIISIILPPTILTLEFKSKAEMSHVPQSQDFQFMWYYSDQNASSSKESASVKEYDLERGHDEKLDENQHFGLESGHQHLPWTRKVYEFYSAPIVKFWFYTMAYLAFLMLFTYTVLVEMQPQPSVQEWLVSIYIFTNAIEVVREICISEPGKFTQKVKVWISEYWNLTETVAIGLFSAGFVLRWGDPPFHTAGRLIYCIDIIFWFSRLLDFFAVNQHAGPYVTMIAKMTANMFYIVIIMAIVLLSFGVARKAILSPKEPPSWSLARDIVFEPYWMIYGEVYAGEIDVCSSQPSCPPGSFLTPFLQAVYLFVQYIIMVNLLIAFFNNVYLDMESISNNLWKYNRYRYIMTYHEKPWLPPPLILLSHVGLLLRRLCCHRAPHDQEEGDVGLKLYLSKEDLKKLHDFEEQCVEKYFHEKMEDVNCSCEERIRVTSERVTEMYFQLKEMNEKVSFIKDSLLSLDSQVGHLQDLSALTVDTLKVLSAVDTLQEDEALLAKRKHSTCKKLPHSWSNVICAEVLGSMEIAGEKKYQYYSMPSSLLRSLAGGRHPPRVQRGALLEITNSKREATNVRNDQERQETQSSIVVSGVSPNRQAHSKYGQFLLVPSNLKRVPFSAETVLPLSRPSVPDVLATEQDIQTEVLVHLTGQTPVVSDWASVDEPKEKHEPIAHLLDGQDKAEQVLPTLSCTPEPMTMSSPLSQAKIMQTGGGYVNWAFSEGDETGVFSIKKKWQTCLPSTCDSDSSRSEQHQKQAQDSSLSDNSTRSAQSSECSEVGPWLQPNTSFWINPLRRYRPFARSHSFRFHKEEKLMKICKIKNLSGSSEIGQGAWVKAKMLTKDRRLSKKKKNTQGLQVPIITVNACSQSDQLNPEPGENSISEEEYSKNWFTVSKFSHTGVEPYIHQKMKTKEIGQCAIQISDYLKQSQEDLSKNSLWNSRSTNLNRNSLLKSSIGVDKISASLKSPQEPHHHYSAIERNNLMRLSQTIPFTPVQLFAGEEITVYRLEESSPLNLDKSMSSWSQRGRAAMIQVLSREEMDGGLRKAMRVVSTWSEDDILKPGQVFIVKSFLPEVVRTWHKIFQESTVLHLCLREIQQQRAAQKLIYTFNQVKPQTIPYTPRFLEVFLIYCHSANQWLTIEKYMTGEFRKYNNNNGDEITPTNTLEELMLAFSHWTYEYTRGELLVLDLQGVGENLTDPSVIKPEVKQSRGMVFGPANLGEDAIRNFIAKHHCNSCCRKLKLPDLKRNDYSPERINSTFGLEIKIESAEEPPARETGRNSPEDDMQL
T1 sequence (O75762 whole entry, species assumed): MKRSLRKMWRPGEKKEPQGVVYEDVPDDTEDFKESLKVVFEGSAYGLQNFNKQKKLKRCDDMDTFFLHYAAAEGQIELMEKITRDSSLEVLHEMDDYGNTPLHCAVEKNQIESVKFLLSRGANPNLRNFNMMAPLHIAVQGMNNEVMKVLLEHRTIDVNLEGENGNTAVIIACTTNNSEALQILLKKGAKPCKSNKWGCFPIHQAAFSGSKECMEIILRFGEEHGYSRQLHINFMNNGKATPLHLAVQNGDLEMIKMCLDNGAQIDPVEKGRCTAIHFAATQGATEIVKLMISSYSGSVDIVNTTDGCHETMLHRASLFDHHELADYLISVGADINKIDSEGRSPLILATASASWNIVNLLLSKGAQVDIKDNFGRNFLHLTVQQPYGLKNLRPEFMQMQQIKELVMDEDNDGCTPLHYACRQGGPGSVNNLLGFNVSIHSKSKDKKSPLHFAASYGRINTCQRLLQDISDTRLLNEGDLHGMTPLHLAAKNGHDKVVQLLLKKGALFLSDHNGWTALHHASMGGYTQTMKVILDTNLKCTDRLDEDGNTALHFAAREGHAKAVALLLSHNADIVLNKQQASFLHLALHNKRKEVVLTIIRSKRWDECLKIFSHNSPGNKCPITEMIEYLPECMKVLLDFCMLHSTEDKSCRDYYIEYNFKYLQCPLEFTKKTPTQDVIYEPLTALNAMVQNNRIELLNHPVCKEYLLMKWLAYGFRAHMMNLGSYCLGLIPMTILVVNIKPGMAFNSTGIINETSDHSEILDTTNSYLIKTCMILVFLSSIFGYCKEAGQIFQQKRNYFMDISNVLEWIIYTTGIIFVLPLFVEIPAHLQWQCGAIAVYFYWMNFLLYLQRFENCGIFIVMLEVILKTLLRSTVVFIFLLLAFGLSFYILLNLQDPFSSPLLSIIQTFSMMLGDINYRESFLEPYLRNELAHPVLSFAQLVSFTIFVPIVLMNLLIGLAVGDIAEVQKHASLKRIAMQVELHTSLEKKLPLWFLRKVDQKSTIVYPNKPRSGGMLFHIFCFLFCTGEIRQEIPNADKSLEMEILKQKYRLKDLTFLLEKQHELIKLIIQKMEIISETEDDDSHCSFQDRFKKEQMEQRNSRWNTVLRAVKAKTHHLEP

| Structure (SMILES) | proliferation (BrDU incorporation) [1] | melanoma tumor growth [2] | Demonstrated Reduction of Proliferation at or below 10 μM Inhibitor concentration ([3]; H292, >20% inhibition at 48-96 hours, MTT, SRB, luminescence or BrDU) | IC50 ([3]; NCI-H292, 72 h, H292, Exp 1, 72 hours, read-out: IC50) [µM] | IC50 ([3]; NCI-H292, 72 h, H292, Exp 2, 72 hours, read-out: IC50) [µM] | IC50 ([3]; NCI-H292, H292, mean of Exp 1 and Exp 2, read-out: Mean IC50) [µM] | IC50 ([4]; 72 h, Y79, Exp 1, 72 hours, read-out: IC50) [µM] | IC50 ([4]; 72 h, Y79, Exp 2, 72 hours, read-out: IC50) [µM] | death of cancer cells by MTT assay ([4]; Y79, 1-7.5 μM, 48-72 hours) | IC50 ([4]; Y79, mean of Exp 1 and Exp 2, read-out: Mean IC50) [µM] | effect on NMDA receptor currents [5] | effect on agonist-induced Ca2+ changes [6] | effect on AMPA receptor currents [7] | retinal damage (histology) [8] | effect on agonist-induced Ca2+ changes [9] |
| --- | --- | --- | --- | --- | --- | --- | --- | --- | --- | --- | --- | --- | --- | --- | --- |
| COc1cc2c(cc1OC)C(c1sc3ccccc3c1Cl)=NCC2 [Compound M6] | significantly reduce proliferation | reduces tumor growth | H292 non small cell lung cancer | 18.5 | 15.9 | 17.2 | 36.3 | 38.6 | resulted in the death of the cancer cells | 37.5 | – | – | – | – | – |
| Cc1c(Cc2ccc(Cl)c(Cl)c2)c(=O)oc2cc(O)ccc12 [Compound M21] | – | – | – | – | – | – | – | – | – | – | no effect | no effect | no effect | significant reduction in retinal damage | no effect |
